In patent US12048764B2, “Levodopa infusion solution” (DIZLIN PHARMACEUTICALS AB, priority 2017, dated 2024):

Legend:
[1] = Preliminary patient trial: s.c./i.v. infusion versus intestinal Duodopa, plasma levodopa and carbidopa; format: in vivo, patients with Parkinson's disease
From the text: The trial results are from 3 randomly selected patients of a larger study, and for each patient subcutaneous, intravenous injection and intestinal administration was compared.
The study was a prospective, randomized, 3-period cross-over, open-label multicentre trial comparing intravenous and subcutaneous infusion of the preferred aqueous pharmaceutical solution with intestinal Duodopa (LCIG) performed according to the principles of Good Clinical Practice (GCP). The trial included patients with Parkinson's disease who are on Duodopa treatment because of severe on-off manifestation when on oral levodopa. During one treatment visit, patients receive Duodopa at optimal dosage for 16 hours, during another treatment visit, the patients received an i.v. infusion of the preferred aqueous pharmaceutical solution at a concentration estimated to yield corresponding serum levels of levodopa for the same duration, and at a third treatment visit the patients received the corresponding amount of levodopa but in the form of s.c. infusion. Blood samples were drawn according to a set schedule during the treatment visits for up to 24 h. […]
Levodopa and carbidopa in patient's plasma was analysed by ultra-performance liquid chromatography-tandem mass spectrometry (UPLC-MS/MS) according to the principles of Good Laboratory Practice (GLP).

[2] = cited from earlier work

- levodopa concentration in the blood required for therapeutic effect ([1]; patient no 101, severe PD): 5,000-6,000 ng/mL
- levodopa concentration in the blood required for therapeutic effect ([1]; patient no 103, moderate or mild PD): 1,600-1,700 ng/mL
SMILES: N[C@@H](Cc1ccc(O)c(O)c1)C(=O)O [levodopa]
- concentration above which levodopa precipitates ([2]; pH values acceptable for continuous parenteral administration): 500 to 1000 µg/mL
- levodopa concentration obtainable ([2]; pH<3 or pH>9): exceeding 5 mg/ml
